Source: patent US6368788B1 (priority 1987, dated 2002)
Where two headings read alike, the source gives them in different places. Marks after values point to notes of the source that are not given here.

Legend:
[1] = system: Rauscher MuLV; test: Anti-viral response to Rauscher MuLV; type: in vivo, mice
Description: Innate mechanisms of anti-viral immunity are important to survival of the host. The Rauscher murine leukemia virus (MuLV) is an example of a highly virulent animal retrovirus infection, first isolated and characterized by Dr. Rauscher from BALB/c mouse tissues in 1962. […] The virus employed in present GLP/blinded study was a murine leukemia complex known to induce progressive erythroleukemia in mice (i.e., Rauscher MuLV and replication-defective Rauscher spleen focus-forming virus). Disease manifested within about 6 days with death by about 50 days. Measurements of splenomegaly, blood reverse transcriptase, virus plaque assays (i.e., XC-plaque assay for viremia using SC-1 host cells) and serum anti-viral antibody titers were used to assess infection. Spleens achieved about 2.0 grams in weight within 21 days of infection, as compared with a normal spleen weights in an uninfected animals of about 0.1 gram.
Mice were inoculated with Rauscher MuLV complex (0.1 ml/7.8×10^4 PFU/mL) on day 0 and sacrificed on day 21. Test groups were comprised of 10 mice and control groups 6 mice. Control articles included saline and AZT (in drinking water at about 1.25 mg/mouse/day≈63 mg/kg/day/mouse). […] A non-infected group of mice was also sacrificed on day 21 to provide normal control values.
In EXAMPLE 38, SC-1 cells were originally derived from murine embryos, and XC cells (a rat tumor cell line induced by Rous Sarcoma Virus) were obtained from the ATCC in Rockville, Md.

[2] = system: C. albicans; type: in vivo, mice
[3] = system: E. coli; test: Survival after acute peritonitis with LD100 dose of E. coli; type: in vivo, mice; conditions: 1 MED
[4] = system: Staphylococcus aureus; test: Survival after acute peritonitis with LD100 dose of antibiotic-resistant Staphylococcus aureus, prophylactic treatment; conditions: for Percentage Survivors: 1 MED
[5] = system: Staphylococcus aureus; test: Survival after Staphylococcus aureus peritonitis, therapeutic treatment 1 hour after challenge; type: in vivo, mice; conditions: 1 MED
Protocol: EXAMPLES 32-34, above, test substance (i.e., L-Glu-L-Trp alone or in combination with antibiotic, or antibiotic alone) was injected sc, ip, po one hour after the bacterial challenge.

[6] = system: Staphylococci; test: Antibiotic sensitivity (doubling-dilution, MIC-2000) of patient isolates before and after Stage 1; type: cell-based
Protocol: Antibiotics were administered according to established dosages and routes: i.e., penicillin, Ampicillin, oxacillin, tetracycline, erythromycin, garamycin; administered by intramuscular route. Antibiotics were chosen according to the antibiotic sensitivity of the Staphylococci isolated from the respective patients. (Antibiotic sensitivity was determined by testing staphylococcal isolates for their sensitivity in an antibiotic sensitivity doubling-dilution assay with the aid of the semi-automatic MIC-2000 system, Dynatech, USA).
Staphylococci were isolated from patients before and after treatment in Stage 1 with L-Glu-L-Trp in order to determine whether a favorable reversal of T-lymphocyte immunodeficiency might lead to a change in the antibiotic sensitivity. The isolated bacterial colonies following Stage I were typed as follows: namely, in 16 patients S. aureus, in 34, S. epidermidis, in 2 saprophytic Staphylococci. In all cases the same types of Staphylococci were isolated following treatment with L-Glu-L-Trp, but in 4 patients the predominant Staphylococci in the isolates changed from S. aureus to S. epidermidis (n=2), and saprophytic Staphylococci (n=2).
Antibiotic sensitivity of Staphylococci were determined by doubling-dilution methods with the aid of the semiautomatic MIC-2000 system (Dynatech, USA).

[7] = system: hepatitis B; test: Children with chronic persistent hepatitis B; type: in vivo, human
Protocol: In accord with a USSR Ministry of Health decision 125 children suffering with chronic persistent hepatitis B were entered into this trial over a two month period. Group 1 consisted of 35 children who received decaris immunomodulatory therapy; Group 2, 38 children who received thymalin treatments; Group 3, […] who received L-Glu-L-Trp; and, Group 4, 32 children who received only conventional symptom specific therapy.
L-Glu-L-Trp was administered at a dose of 2 μg/kg of body mass, im, daily for […], and a repeat (identical) course of treatment was administered 10 days after termination of the first course.

[8] = system: YAC-1 target cells; test: NK cytotoxic activity of splenocytes on YAC-1 target cells; type: in vivo, C3H/HeJ mice
[9] = system: Mycobacterium tuberculosis; design: species or system human; conditions: in vivo
[10] = system: Pseudomonas aeruginosa; test: Survival after acute peritonitis with LD100 dose of Pseudomonas aeruginosa; type: in vivo, mice; conditions: 1 MED
[11] = 25 mg/kg, days 0, 1, 2, 3, and 4
[12] = 50 mg/kg, days 0, 1, 2, 3, and 4
[13] = 100 mg/kg, days 0, 1, 2, 3, and 4
[14] = 200 mg/kg, days 0, 1, 2, 3, and 4
[15] = After Stage 1 Treatment (L-Glu-L-Trp only)
[16] = 20 mg/kg, days 0, 1, 2, 3, and 4 (Group 8)
[17] = 20 mg/kg, days −2, −1, 0, +1, and +2 (Group 10)

## Cc1cn([C@H]2C[C@H](N=[N+]=[N-])[C@@H](CO)O2)c(=O)[nH]c1=O [AZT, reference compound]
[1]; [11]
  Reduction Splenomegaly (%): 46%
  Spleen Weight (mean ± SD): 0.31 ± 0.05
[1]; [12]
  Reduction Splenomegaly (%): 33%
  Spleen Weight (mean ± SD): 0.35 ± 0.17
[1]; [13]
  Reduction Splenomegaly (%): 52%
  Spleen Weight (mean ± SD): 0.29 ± 0.02
[1]; [14]
  Reduction Splenomegaly (%): 46%
  Spleen Weight (mean ± SD): 0.31 ± 0.09

## C[C@@H]1[C@H](O)[C@@H](C)/C=C/C=C/C=C/C=C/C=C/C=C/C=C/[C@H](O[C@@H]2O[C@H](C)[C@@H](O)[C@H](N)[C@@H]2O)C[C@@H]2O[C@](O)(C[C@@H](O)C[C@@H](O)[C@H](O)CC[C@@H](O)C[C@@H](O)CC(=O)O[C@H]1C)C[C@H](O)[C@H]2C(=O)O [Amphotericin, reference compound]
[2]; 0.063 mg/kg
  Germ Tube (%): 20* %
[2]; 0.125 mg/kg
  Germ Tube (%): 17* %
[2]; 0.25 mg/kg
  Germ Tube (%): 14* %
[2]; 0.5 mg/kg
  Germ Tube (%): 3* %
[2]; 1 mg/kg
  Germ Tube (%): 1* %

## CC1(C)S[C@@H]2[C@H](NC(=O)[C@H](N)c3ccccc3)C(=O)N2[C@H]1C(=O)O [Ampicillin, reference compound]
[3]; 24 hours after injection
  Percentage Survivors: 33.3* %
[3]; 48 hours after injection
  Percentage Survivors: 22.2* %
[3]; 72 hours after injection
  Percentage Survivors: 22.2* %
[4]; 24 hours
  Percentage Survivors: 75* %
[4]; 48 hours
  Percentage Survivors: 44.4* %
[4]; 72 hours
  Percentage Survivors: 30.6* %
[4]; ip one hour after bacterial challenge
  Mean effective dose (MED) for 100% survival after one LD50 dose of methicillin-sensitive staphylococci: 100 mg/kg
[5]; 24 hours
  Percentage Survivors: 75.0* %
[5]; 48 hours
  Percentage Survivors: 44.4* %
[5]; 72 hours
  Percentage Survivors: 30.6* %
[6]; [15]
  Mean minimum inhibitory concentration (MIC): 2.64 ± 0.60 µg/mL
[6]; Before Treatment
  Mean minimum inhibitory concentration (MIC): 8.10 ± 0.49 µg/mL

## Cc1nnc(SCC2=C(C(=O)O)N3C(=O)[C@@H](NC(=O)Cn4cnnn4)[C@H]3SC2)s1 [Cephamezine]
[6]; [15]
  Mean minimum inhibitory concentration (MIC): 1.33 ± 0.53 µg/mL
[6]; Before Treatment
  Mean minimum inhibitory concentration (MIC): 3.52 ± 0.94 µg/mL

## O=C(Cc1cccs1)N[C@@H]1C(=O)N2C(C(=O)[O-])=C(C[n+]3ccccc3)CS[C@H]12 [Ceporin]
[6]; [15]
  Mean minimum inhibitory concentration (MIC): 1.82 ± 0.67 µg/mL
[6]; Before Treatment
  Mean minimum inhibitory concentration (MIC): 5.69 ± 0.86 µg/mL

## CN[C@@H]1[C@@H](O)[C@@H](O[C@@H]2[C@@H](O)[C@H](O[C@H]3OC(CN)=CC[C@H]3N)[C@@H](N)C[C@H]2N)OC[C@]1(C)O [Cisomycin]
[6]; [15]
  Mean minimum inhibitory concentration (MIC): 1.59 ± 0.58 µg/mL
[6]; Before Treatment
  Mean minimum inhibitory concentration (MIC): 3.46 ± 0.90 µg/mL

## c1ccc([C@H]2CN3CCSC3=N2)cc1 [Descaris]
[7]; Group 1, Pre-Treatment ALCT Activity None
  Percent of Subjects Disease Free at 6 Months After Treatment: 100%
[7]; Group 2, Pre-Treatment ALCT Activity Moderate
  Percent of Subjects Disease Free at 6 Months After Treatment: 67%
[7]; Group 3, Pre-Treatment ALCT Activity High
  Percent of Subjects Disease Free at 6 Months After Treatment: 67%

## NC[C@H]1O[C@H](O[C@H]2[C@H](O)[C@@H](O[C@H]3O[C@H](CO)[C@@H](O)[C@H](N)[C@H]3O)[C@H](N)C[C@@H]2N)[C@H](O)[C@@H](O)[C@@H]1O [Kanamycin]
[6]; [15]
  Mean minimum inhibitory concentration (MIC): 2.09 ± 0.54 µg/mL
[6]; Before Treatment
  Mean minimum inhibitory concentration (MIC): 6.32 ± 0.58 µg/mL

## CC(=O)OCC1=C(C(=O)O)N2C(=O)[C@@H](NC(=O)Cc3cccs3)[C@H]2SC1 [Keflin]
[6]; [15]
  Mean minimum inhibitory concentration (MIC): 1.86 ± 0.69 µg/mL
[6]; Before Treatment
  Mean minimum inhibitory concentration (MIC): 4.49 ± 0.93 µg/mL

## Cc1nnc(SCC2=C(C(=O)O)N3C(=O)[C@@H](NC(=O)Cn4cnnn4)[C@H]3SC2)s1 [Kefzol]
[6]; [15]
  Mean minimum inhibitory concentration (MIC): 1.86 ± 0.93 µg/mL
[6]; Before Treatment
  Mean minimum inhibitory concentration (MIC): 4.61 ± 0.87 µg/mL

## O=C(N[C@H](CO)[C@H](O)c1ccc([N+](=O)[O-])cc1)C(Cl)Cl [Levomycetin]
[6]; [15]
  Mean minimum inhibitory concentration (MIC): 4.58 ± 0.67 µg/mL
[6]; Before Treatment
  Mean minimum inhibitory concentration (MIC): 9.17 ± 0.36 µg/mL

## Cc1onc(-c2ccccc2)c1C(=O)N[C@@H]1C(=O)N2[C@@H]1SC(C)(C)[C@@H]2C(=O)O [Oxacillin]
[6]; [15]
  Mean minimum inhibitory concentration (MIC): 1.56 ± 0.45 µg/mL
[6]; Before Treatment
  Mean minimum inhibitory concentration (MIC): 5.11 ± 0.63 µg/mL

## CC1(C)S[C@@H]2[C@H](NC(=O)Cc3ccccc3)C(=O)N2[C@H]1C(=O)O [Penicillin]
[6]; [15]
  Mean minimum inhibitory concentration (MIC): 2.52 ± 0.70 µg/mL
[6]; Before Treatment
  Mean minimum inhibitory concentration (MIC): 9.45 ± 0.28 µg/mL

## [H]/N=C(/N)N[C@H]1[C@H](O)[C@@H](O)[C@H](O[C@@H]2O[C@@H](C)[C@](O)(C=O)[C@H]2O[C@@H]2O[C@@H](CO)[C@H](O)[C@@H](O)[C@@H]2NC)[C@@H](N/C(N)=N\[H])[C@@H]1O [Streptomycin]
[6]; [15]
  Mean minimum inhibitory concentration (MIC): 3.39 ± 0.66 µg/mL
[6]; Before Treatment
  Mean minimum inhibitory concentration (MIC): 6.71 ± 0.59 µg/mL

## O=P1(N(CCCl)CCCl)NCCCO1 (centres unmarked) [cyclophosphamide, Cyclophosphamide, reference compound]
[8]; dose 50 (μg/kg), reference treatment
  % Cytotoxicity (mean +/− S.D.): 6.4 ± 0.7%
[8]; dose 50, vs saline
  Cytotoxicity Change (%): −25 ↓ %
[8]; reference treatment
  NK activity: decreased NK activity

## c1ccc([C@H]2CN3CCSC3=N2)cc1 [decaris]
[9]
  Considerable Improvement, % of patients: 5%
  Considerable Improvement, No. of patients: 1
  Improvement, % of patients: 82%
  Improvement, No. of patients: 18
  No Change, % of patients: 13%
  No Change, No. of patients: 3
  Patients with closure of degeneration foci and cavities in the lungs: 10
  Patients with closure of foci and cavities: 45%
  Patients with “considerable improvement”: 5%
  Patients with “improvement”: 18
  Response rate: 86%

## Gentamycin [reference compound]
[10]; 24 hours after injection
  Percentage Survivors: 27.8* %
[10]; 48 hours after injection
  Percentage Survivors: 27.8* %
[10]; 96 hours after injection
  Percentage Survivors: 27.8* %
[6]; [15]
  Mean minimum inhibitory concentration (MIC): 1.32 ± 0.49 µg/mL
[6]; Before Treatment
  Mean minimum inhibitory concentration (MIC): 5.47 ± 0.92 µg/mL

## Poly(IC)
[1]; [16]
  Reduction Splenomegaly (%): 27%
  Spleen Weight (mean ± SD): 0.37 ± 0.22
[1]; [17]
  Reduction Splenomegaly (%): −78%
  Spleen Weight (mean ± SD): 0.72 ± 0.29
